Converted amounts (≈) assume the structure as drawn.
Each compound was assayed on M. catarrhalis A894 (assay: MIC determination by microdilution in cation-adjusted Mueller-Hinton Broth (CLSI M7-A7)). Settings: Moraxella catarrhalis, A894, microdilution method.
Format: cell-based
Description: Minimal inhibitory concentrations (MICs, in mg/l) were determined in cation-adjusted Mueller-Hinton Broth by a microdilution method following the description given in “Methods for Dilution Antimicrobial Susceptibility Tests for Bacteria that Grow Aerobically”, Approved standard, 7th ed., Clinical and Laboratory Standards Institute (CLSI) Document M7-A7, Wayne, Pa., USA, 2006. All Example compounds were tested against several Gram-positive and Gram-negative bacteria.
`O=C1COc2ccc(N3C[C@@H](CNC[C@@H]4Cc5c(F)ccc6ccc(=O)n4c56)OC3=O)cc2N1` [Example 16, (S)-9-fluoro-2-({[(R)-2-oxo-3-(3-oxo-3,4-dihydro-2H-benzo[1,4]oxazin-6-yl)-oxazolidin-5-ylmethyl]-amino}-methyl)-1,2-dihydro-pyrrolo[3,2,1-ij]quinolin-4-one] showed an MIC of 0.125 µg/mL (≈ 0.269 µM).
With `O=C1CSc2ccc(N3C[C@@H](CCNC[C@H]4Cc5c(F)ccc6ccc(=O)n4c56)OC3=O)cc2N1` [Example 18, (R)-9-fluoro-2-({2-[(R)-2-oxo-3-(3-oxo-3,4-dihydro-2H-benzo[1,4]thiazin-6-yl)-oxazolidin-5-yl]-ethylamino}-methyl)-1,2-dihydropyrrolo[3,2,1-ij]quinolin-4-one] the MIC was no more than 0.063 µg/mL.
Compound `O=C1CSc2ccc(N3C[C@H](CCNC[C@@H]4Cc5c(F)ccc6ccc(=O)n4c56)OC3=O)cc2N1` [Example 19, (S)-9-fluoro-2-({2-[(S)-2-oxo-3-(3-oxo-3,4-dihydro-2H-benzo[1,4]thiazin-6-yl)-oxazolidin-5-yl]-ethylamino}-methyl)-1,2-dihydropyrrolo[3,2,1-ij]quinolin-4-one] has an MIC of no more than 0.063 µg/mL.
`O=C1CSc2ccc(N3C[C@H](CCNC[C@H]4Cc5c(F)ccc6ccc(=O)n4c56)OC3=O)cc2N1` [Example 20, (R)-9-fluoro-2-({2-[(S)-2-oxo-3-(3-oxo-3,4-dihydro-2H-benzo[1,4]thiazin-6-yl)-oxazolidin-5-yl]-ethylamino}-methyl)-1,2-dihydropyrrolo[3,2,1-ij]quinolin-4-one] showed an MIC of no more than 0.063 µg/mL.
`O=C1CSc2ccc(N3C[C@H](CCNC[C@@H]4Cc5cccc6ncc(=O)n4c56)OC3=O)cc2N1` [Example 29, (S)-5-({2-[(S)-2-oxo-3-(3-oxo-3,4-dihydro-2H-benzo[1,4]thiazin-6-yl)-oxazolidin-5-yl]-ethylamino}-methyl)-5,6-dihydro-pyrrolo[1,2,3-de]quinoxalin-3-one] gave an MIC of no more than 0.063 µg/mL.
With `O=C1CSc2ccc(N3C[C@@H](CNC[C@@H]4Cc5cccc6ncc(=O)n4c56)OC3=O)cc2N1` [Example 30, (S)-5-({[(R)-2-oxo-3-(3-oxo-3,4-dihydro-2H-benzo[1,4]thiazin-6-yl)oxazolidin-5-ylmethyl]-amino}-methyl)-5,6-dihydro-pyrrolo[1,2,3-de]quinoxalin-3-one] the MIC was 0.125 µg/mL (≈ 0.27 µM).

Same assay, conditions: microdilution method
In the case of `O=C1CSc2ccc(N3C[C@@H](CCNC[C@@H]4Cc5c(F)ccc6ccc(=O)n4c56)OC3=O)cc2N1` [Example 17, (S)-9-fluoro-2-({2-[(R)-2-oxo-3-(3-oxo-3,4-dihydro-2H-benzo[1,4]thiazin-6-yl)-oxazolidin-5-yl]-ethylamino}-methyl)-1,2-dihydro-1.5 pyrrolo[3,2,1-ij]quinolin-4-one], the “MIC M. catarrhalis A894” value is reported as “≦0.063 mg/l”.
